{"source": "patent US20230157970A1", "about": "“Targeted Therapy of Kidney Fibrosis” (Board of Regents, The University of Texas System, priority 2021, published 2023)", "key": {"[1]": {"test_system": "CKD model", "experiment": "Folic acid CKD model, kidney size after harvesting", "format": "in vivo", "details": "folic acid CKD mice; 10 mg/kg, Navi oral, nanoparticles IV", "method": "This example was an animal study that created a CKD model by injecting 250 mg/kg folic acid intraperitonially (single injection). After 15 days the treatment started. The mice were divided in 5 groups of untreated, healthy, Fausidil, PLGA-Navitoclax, and PLGA-AT2-Navitoclax. FIG. 5: Figure: Image of the kidney after harvesting. The kidney from different treatment groups: A-Healthy control 510, B-Untreated control 520, C-Navi(10 mg/kg oral) 530, D-Fausidil(10 mg/kg IP) 540, E-PLGA-Navi(10 mg/kg IV) 550, F-PLGA-AT2-Navi(10 mg/kg IV) 560. FIGS. 6A-6B: The size of the untreated kidney shrunk by 42.46% (p-value 0.0062) than the healthy control (A). […] The weight of kidney (B) was also measured in gm and the weight 620 of the kidney treated with PLGA-AT2-Navi."}, "[2]": {"test_system": "apoptosis in kidney section", "experiment": "TUNEL assay of kidney section", "format": "in vivo, mice", "method": "This example was an animal study that created a CKD model by injecting 250 mg/kg folic acid intraperitonially (single injection). After 15 days the treatment started. The mice were divided in 5 groups of untreated, healthy, Fausidil, PLGA-Navitoclax, and PLGA-AT2-Navitoclax. FIGS. 9A-9R: Immunohistochemistry (IHC) and TUNEL assay of kidney section. IHC for alpha-SMA protein of different treatment group (A-F). The arrow pointed to the dark dot which represented the alpha-SMA protein. […] The dark dot from FIGS. 9G-9L represented the CTGF protein."}, "[3]": {"test_system": "Bcl2", "experiment": "Western blot analysis from the kidney sample, Bcl2", "format": "in vivo, mice", "details": "10 mg/kg, compared with other groups", "method": "This example was an animal study that created a CKD model by injecting 250 mg/kg folic acid intraperitonially (single injection). After 15 days the treatment started. The mice were divided in 5 groups of untreated, healthy, Fausidil, PLGA-Navitoclax, and PLGA-AT2-Navitoclax.\nFIG. 8: Western blot analysis from the kidney sample. Bcl2 expression was decreased in the sample collected from different group Healthy control, Untreated control, Navi(10 mg/kg oral), Fausidil(10 mg/kg IP), PLGA-Navi(10 mg/kg IV), PLGA-AT2-Navi(10 mg/kg IV) of mice."}}, "data": [{"smiles": "CC1(C)CCC(c2ccc(Cl)cc2)=C(CN2CCN(c3ccc(C(=O)NS(=O)(=O)c4ccc(N[C@H](CCN5CCOCC5)CSc5ccccc5)c(S(=O)(=O)C(F)(F)F)c4)cc3)CC2)C1", "note": "[Navitoclax]", "values": [{"measurement": "increase of kidney size after treatment", "setting": "[1]", "result": 43.95, "unit": "%"}, {"measurement": "apoptosis (broken nucleus of DNA) by TUNEL", "setting": "[2]", "result": "apoptosis was observed"}, {"measurement": "Bcl2 expression", "setting": "[3]", "result": "less expression of bcl2"}]}]}
